One experiment relates to IL-1β production. Description: LPS induced sepsis model, IL-1β in tissue by ELISA. Particulars: 10 mg/kg i.v. twice (15 min before and 2 h after LPS), 18 h after LPS; for Suppression Rate for Lung: mouse lung; for Suppression Rate for Mesenteric Lymph Nodes: mouse mesenteric lymph nodes. It counts as in vivo, C57BL/6J mouse. The procedure: The experiment was carried out with reference to the method described in Non-Patent Literature 5 (F. Nissen et al., Nature, 452, 654 (2008)). A solution of 1 mg/ml LPS (lipopolysaccharide) in physiological saline was intraperitoneally administered (10 ml/kg) to a C57BL/6J mouse (Charles River, male, 7 to 8 weeks). The test compound in an amount of 10 mg/kg was intravenously administered twice, 15 minutes before LPS administration and 2 hours after LPS administration. The mouse was dissected 18 hours after LPS administration, and the mesenteric lymph nodes and lungs were excised. The mesenteric lymph nodes were dissolved in 200 μl and the lungs in 1 ml of a dissolving buffer (30 mM Tris (pH7.4), 150 mM NaCl, 0.1% TritonX-100, 2 mM CaCl2, and 2 mM MgCl2). Non-dissolved matter was removed by centrifugal separation. The IL-1β in the tissue solutions was measured using an IL-1β ELISA Kit (Thermo Co., Ltd.). In Table 2, compounds having a suppression rate of 50% or more are indicated as “+++,” compounds having a suppression rate of 50%>suppression rate≧30% are indicated as “++,” and compounds having a suppression rate of 30%>suppression rate 20% are indicated as “+.”
The suppression rate was calculated using the following calculation equation. a=(1−X/Y)×100 [Equation 1] X: IL-1β PRODUCTION AMOUNT WHEN, 10 mg/kg OF TEST COMPOUND WAS ADMINISTERED TO RESPECTIVE TISSUE Y: IL-1β PRODUCTION AMOUNT WHEN TEST COMPOUND WAS NOT ADMINISTERED TO RESPECTIVE TISSUE a: SUPPRESSION RATE (%)
For orientation: In an ELISA, binding on a coated surface is turned into a signal by an enzyme label.

For the next experiment, the target named is T1, Human S1P3 receptor (Homo sapiens, UniProt Q99500).
T1 construct: expressed in transfected cells; host or cells: CHO cells (Geneticin-selected)
T1 sequence (Q99500 whole entry): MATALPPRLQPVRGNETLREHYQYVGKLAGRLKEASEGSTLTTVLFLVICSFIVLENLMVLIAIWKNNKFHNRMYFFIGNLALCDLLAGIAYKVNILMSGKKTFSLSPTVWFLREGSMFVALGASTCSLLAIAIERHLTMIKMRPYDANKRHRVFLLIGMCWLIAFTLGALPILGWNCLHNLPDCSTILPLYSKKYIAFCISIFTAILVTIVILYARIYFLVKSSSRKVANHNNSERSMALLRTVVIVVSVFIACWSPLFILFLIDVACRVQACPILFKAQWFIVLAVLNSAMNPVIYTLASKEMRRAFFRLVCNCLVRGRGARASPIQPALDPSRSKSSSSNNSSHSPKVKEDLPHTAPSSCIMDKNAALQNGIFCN
Nature of the experiment: Suppression of S1P-induced cellular calcium mobilization in human S1P3 receptor-expression CHO cells (Schild plot). Particulars: Schild plot of S1P EC50 shift; test compound 125 nM, 1.25 μM, 12.5 μM; hS1P3 CHO cells; read-out: S1P3 dissociation constant Kd value. Type of experiment: cell-based. The procedure: Suppression Effect of Test Compound Against Cellular Calcium Mobilization of Human S1P3 Receptor-Expression Cell by S1P (Sphingosine 1-Phosphoric Acid)
Human S1P3 receptor-expression CHO cells were subcultured in a Ham's F-12 culture medium containing 10% fetal bovine serum, and 300 μg/mL of Geneticin. The human S1P3 receptor-expression CHO cells were subjected to 0.25% trypsinization, then recovered from the dish, and floated in a Ham's F-12 culture medium containing 10% fetal bovine serum, and 300 μg/mL of Geneticin. After that, the human S1P3 receptor-expression CHO cells were disseminated into a 96-well black clear bottom plate (BD Falcon Biocoat) so that 7×10^4/100 μL/well of the human S1P3 receptor-expression CHO cells were disseminated. And then, the human S1P3 receptor-expression CHO cells were cultivated for one night at 37° C. under 5% CO2. The next day, the wells were washed 3 times with 100 μL of PBS containing 0.1% fatty acid-free bovine serum albumin (BSA). The culture medium was exchanged with a Ham's F-12 culture medium containing 0.1% BSA, and then starved of serum for 6 hours in an CO2 incubator at 37° C.
The culture medium was thrown away after the 6 hours. Then, 50 μL/well of a Fluo3 loading buffer was added, and the cultures were cultivated for further 1 hour. The Fluo3 loading buffer was prepared as follows. First, equal amounts of Fluo3-AM (Dojindo) and pluronic F-127 (20% DMSO solution, invitrogen) were mixed. Next, the mixture of Fluo3-AM and pluronic F-127 was added to a Hanks-HEPES buffer (balanced salt solution containing 20 mM HEPES (pH, 7.4), 0.1% BSA (fatty acid-free), and 2.5 mM probenecid) to form a Fluo3 loading buffer having a final Fluo3-AM concentration of 4
After incubating for 1 hour, the cultures were washed 3 times with 100 μL of the Hanks-HEPES buffer. Then, 100 μL of the same buffer in which a test compound (125 nM, 1.25 μM, 12.5 μM) or DMSO had been dissolved was added to the cultures, and then incubated for 30 minutes at 37° C. in a microplate spectrophotofluorometer (FLEX Station) (Molecular Device Co., Ltd.). Then, 25 μL of S1P prepared at 5 times the concentration of the final concentration by serial dilution (final concentration of 0.1 nM, 1 nM, 10 nM, 100 nM, and 1 μM) was added, and the fluorescence based on the Fluo3 due to calcium mobilization was detected and measured at an excitation wavelength of 485 nm and a detection wavelength of 525 nm using the same apparatus. Based on the measurement data, the increase in fluorescence was calculated by subtracting the minimum fluorescence intensity from the maximum fluorescence intensity. The measured increase in fluorescence was used to perform a curve approximation of the relationship between the S1P concentration and the increase in fluorescence using PRISM 4 software (GraphPad). Based on the results, the EC50 value of the compound-untreated and the EC50 value of the compound-treated at each concentration were calculated. Schild Plot analysis was performed based on these values to determine dissociation constant Kd value. In Table 1, 1,000 nmol/L>Kd value≧100 nmol/L is indicated as “+,” 100 nmol/L>Kd value≧10 nmol/L is indicated as “++,” 10 nmol/L>Kd value≧1 nmol/L is indicated as “+++,” and 1 nmol/L>Kd value is indicated as “++++.”
On the technique in general: Calcium flux is commonly read through the fluorescence of an indicator in the cells.

Experiment [1] addresses T2, S1P1 receptor (Homo sapiens, UniProt P21453). Nature of the experiment: Antagonistic action on the S1P1 receptor using the method of Experiment Example 1. Set-up: expressed in transfected cells. Type of experiment: cell-based.
Experiment [2] addresses T2, S1P1 receptor. Nature of the experiment: Intracellular calcium mobilization derivative (agonist) test in human S1P1 receptor-expression CHO cells. It counts as cell-based. Details: expressed in transfected cells; host or cells: CHO cells (Geneticin-selected). Particulars: agonist mode, read-out: EC50 value, intracellular calcium mobilization derivative action. The procedure:
Intracellular Calcium Mobilization Derivative Test of Test Compound Against Human S1P1 Receptor-Expression Cell
Human S1P receptor-expression CHO cells (hS1P1 receptor-expression CHO cells, hS1P3 receptor-expression CHO cells, and hS1P4 receptor-expression CHO cells) subcultured in a Ham's F-12 culture medium containing 10% fetal bovine serum, and 200 μg/mL of Geneticin were disseminated into a 96-well black clear bottom plate (coaster) so that 4×10^4 cells/well of the human S1P receptor-expression CHO cells were disseminated. The human S1P3 receptor-expression CHO cells were then cultivated for one night at 37° C. under 5% CO2. A Calcium Screening Kit reagent (Dojindo) was added as a Ca^2+ binding fluorescence indicator, and then the cultures were cultivated for 60 minutes at 37° C. under 5% CO2. After cultivation, the fluoroesence intensity was measured at an excitation wavelength of 485 nm and a detection wavelength of 525 nm using a microplate spectrophotofluorometer (FLEX Station) (Molecular Device Co., Ltd.). S1P prepared in a culture medium so that the concentration would be 10 times that of the final concentration, or a test compound (final DMSO concentration 0.1%) was added 18 seconds after the start of the fluorescence measurement, and the fluorescence intensity was continuously measured every 1.5 seconds until 100 seconds after the addition. […]

In experiment [3] the test system is Cecal ligation and puncture sepsis model. Description: Cecal ligation and puncture sepsis model, survival. Type of experiment: in vivo, Long-Evans rats. Particulars: 0.1 mg/kg/hr continuous i.v. from 2 hours after CLP, rat. Here is the method:
This model is widely used as a model for polymicrobial abdominal sepsis caused by leakage of intestinal bacteria. The experiment was carried out with reference to the method described in Non-Patent Literature 9 (D. Rittirsch et al., Nature Protocols, 4, 31 (2009)). Long-Evans rats were used (Nihon SLC, male 9 weeks). The abdominal portion of the rats was cut open under isoflurane anesthesia, and the cecum was removed. The cecum was ligated with silk thread, and 3 holes were opened in the tip portion of the cecum using an 18 G syringe needle. After the treatment, the cecum was returned to the body, and the wound was sutured. The rats were then returned to their cages, and observed for 4 days to determine the survival rate. The test compound (0.1 mg/kg/hr) was continuously administered from a cannula stuck in the femoral vein from 2 hours after the CLP treatment.

T2 sequence (P21453 whole entry): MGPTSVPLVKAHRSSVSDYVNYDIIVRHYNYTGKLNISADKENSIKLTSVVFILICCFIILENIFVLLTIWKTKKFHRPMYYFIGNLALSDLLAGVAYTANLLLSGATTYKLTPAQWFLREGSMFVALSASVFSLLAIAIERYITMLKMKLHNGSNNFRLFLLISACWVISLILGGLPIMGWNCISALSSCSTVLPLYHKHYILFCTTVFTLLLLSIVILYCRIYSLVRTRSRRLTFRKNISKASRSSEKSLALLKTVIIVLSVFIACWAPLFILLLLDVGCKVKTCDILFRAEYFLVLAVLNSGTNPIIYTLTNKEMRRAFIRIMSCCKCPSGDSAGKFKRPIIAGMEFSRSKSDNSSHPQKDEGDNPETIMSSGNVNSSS

In general, Kd refers to the equilibrium constant for the complex coming apart. On to `C[C@](N)(CCc1ccc(Sc2cc(C(F)(F)F)ccc2O)cc1Cl)COP(=O)(O)O` [Example 11, (S)-2-amino-4-[2-chloro-4-(2-hydroxy-5-trifluoromethylphenylthio)phenyl]-2-methylbutylphosphoric acid monoester], for which, in the experiment with IL-1β production, the “Suppression Rate for Lung” value was “++ (50%>suppression rate≧30%)” and the “Suppression Rate for Mesenteric Lymph Nodes” value was “++ (50%>suppression rate≧30%)”. The Kd on Human S1P3 receptor was in the range of 0.001 to 0.01 µM.

The term EC50 denotes the concentration giving half of the maximal effect. `CCC[C@](N)(CCc1ccc(Sc2cc(C(F)(F)F)ccc2O)cc1Cl)COP(=O)(O)O` [Example 13]: in the experiment with IL-1β production, the “Suppression Rate for Lung” value was “+++ (suppression rate of 50% or more)” and the “Suppression Rate for Mesenteric Lymph Nodes” value is “+++ (suppression rate of 50% or more)”. In addition, the Kd on S1P1 receptor [1] was more than 100 µM. Also, at S1P1 receptor [2], the concentration for a half-maximal effect (EC50) is more than 10 µM. Moreover, the dissociation constant Kd at Human S1P3 receptor was less than 0.001 µM.

Turning to `CCC[C@](N)(CCc1ccc(Sc2cc(-c3ccccc3)ccc2O)cc1Cl)COP(=O)(O)O` [Example 22], the “survival rate after 4 days” value in experiment [3] (medium group 40%) came to 70%. In addition, the “survival curve compared with the medium administration group” value in experiment [3] (observed 4 days) was “survival curve that had shifted to the right”. For the same compound, the Kd at Human S1P3 receptor is less than 0.001 µM.

On to `C[C@](N)(CCc1ccc(Sc2cc(Cl)ccc2O)cc1Cl)COP(=O)(O)O` [Example 10, (S)-2-amino-4-[2-chloro-4-(5-chloro-2-hydroxyphenylthio)phenyl]-2-methylbutylphosphoric acid monoester], for which the Kd at Human S1P3 receptor is 0.01 to 0.1 µM.

As to `Cc1ccc(O)c(Sc2ccc(CC[C@](C)(N)COP(=O)(O)O)c(Cl)c2)c1` [Example 1, (S)-2-amino-4-[2-chloro-4-(2-hydroxy-5-methylphenylthio)phenyl]-2-methylbutylphosphoric acid monoester], at Human S1P3 receptor, the equilibrium dissociation constant (Kd) was in the range of 0.01 to 0.1 µM.

Turning to `CCC[C@](N)(CCc1ccc(Sc2cc(OCc3ccccc3)ccc2O)cc1Cl)COP(=O)(O)O` [Example 23, (S)-2-amino-4-[4-(5-benzyloxy-2-hydroxyphenylthio)-2-chlorophenyl]-2-propylbutylphosphoric acid monoester], the Kd on Human S1P3 receptor is 0.001 to 0.01 µM.

With `C[C@](N)(CCc1ccc(Sc2cc(C#N)ccc2O)cc1Cl)COP(=O)(O)O` [Example 15, (S)-2-amino-4-[2-chloro-4-(5-cyano-2-hydroxyphenylthio)phenyl]-2-methylbutylphosphoric acid monoester], the Kd at S1P1 receptor [1] is more than 100 µM; on Human S1P3 receptor, 0.1 to 1 µM. Also, on S1P1 receptor [2], the EC50 is more than 10 µM.

Consider `CCCc1ccc(O)c(Sc2ccc(CC[C@@](N)(CCC)COP(=O)(O)O)c(Cl)c2)c1` [Example 18, (S)-2-amino-4-[2-chloro-4-(2-hydroxy-5-propylphenylthio)phenyl]-2-propylbutylphosphoric acid monoester], for which the Kd at Human S1P3 receptor lay in the range of 0.001 to 0.01 µM.

In the case of `C=CC[C@](N)(CCc1ccc(Sc2cc(C(F)(F)F)ccc2O)cc1Cl)COP(=O)(O)O` [Example 12, (R)-2-allyl-2-amino-4-[2-chloro-4-(2-hydroxy-5-trifluoromethylphenylthio)phenyl]-butylphosphoric acid monoester], in the experiment on IL-1β production, the “Suppression Rate for Lung” value was “++ (50%>suppression rate≧30%)” and the “Suppression Rate for Mesenteric Lymph Nodes” value is listed as “+ (30%>suppression rate 20%)”. Also, the equilibrium dissociation constant (Kd) on Human S1P3 receptor is less than 0.001 µM.
